Results published in PubChem BioAssay AID330 (DTP/NCI, 2004).
“And” between values parts separate entries of the source, which are not always exact repeats. Equal values may be shown once. Inconclusive results and toxic doses are left out. Rule for the calls: active = survival T/C of 150% or more; inactive = T/C below 125% in these data.

Tested on: P388 leukemia ip, CD2F1 mice, survival T/C
Experiment: NCI In Vivo Anticancer Drug Screen. Data for tumor model P388 Leukemia (intraperitoneal) in CD2F1 (CDF1) mice
Details: endpoint: median survival time, higher = longer survival
Summary of the method: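 Mice carrying the transplanted tumor received test compound or vehicle. Survival was recorded in each group, and the value is the treated-group measurement divided by that of the vehicle-treated control group.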

[1] = dose: 50.0 mg/kg/injection, schedule: Q01DX005 (ip), vehicle: Klucel (hydroxypropylcellulose) (HPC)
[2] = dose: 50.0 mg/kg/injection, schedule: Q01DX005 (ip), vehicle: saline
[3] = dose: 100.0 mg/kg/injection, schedule: Q01DX005 (ip), vehicle: saline
[4] = dose: 50.0 mg/kg/injection, schedule: Q01DX005 (ip), vehicle: saline with Tween-80
[5] = dose: 100.0 mg/kg/injection, schedule: Q01DX005 (ip), vehicle: saline with Tween-80
[6] = dose: 200.0 mg/kg/injection, schedule: Q01DX005 (ip), vehicle: saline with Tween-80
[7] = dose: 100.0 mg/kg/injection, schedule: Q01DX001 (ip), vehicle: saline with Tween-80
[8] = dose: 200.0 mg/kg/injection, schedule: Q01DX001 (ip), vehicle: saline with Tween-80
[9] = dose: 100.0 mg/kg/injection, schedule: Q04DX003 (ip), vehicle: saline with Tween-80
[10] = dose: 50.0 mg/kg/injection, schedule: Q01DX009 (ip), vehicle: saline
[11] = dose: 200.0 mg/kg/injection, schedule: Q01DX009 (ip), vehicle: saline

Measured: T/C

COc1cc2ccc(/C=N/NC(N)=S)cc2cc1OC
inactive: dose: 12.5 mg/kg/injection, schedule: Q01DX009 (ip), vehicle: water 96 % of control | dose: 25.0 mg/kg/injection, schedule: Q01DX009 (ip), vehicle: water 90 % of control | dose: 50.0 mg/kg/injection, schedule: Q01DX009 (ip), vehicle: water 96 % of control | dose: 100.0 mg/kg/injection, schedule: Q01DX009 (ip), vehicle: water 91 % of control | dose: 200.0 mg/kg/injection, schedule: Q01DX009 (ip), vehicle: water 89 % of control

O=c1c(Cc2ccccc2)coc2ccccc12
inactive: dose: 60.0 mg/kg/injection, schedule: Q01DX005 (ip), vehicle: saline with Tween-80 106 % of control | dose: 120.0 mg/kg/injection, schedule: Q01DX005 (ip), vehicle: saline with Tween-80 100 % of control | dose: 240.0 mg/kg/injection, schedule: Q01DX005 (ip), vehicle: saline with Tween-80 103 % of control

CSCCC(NC(=O)OCC1c2ccccc2-c2ccccc21)C(=O)O (stereo not drawn)
inactive: [1] 103 % of control | dose: 100.0 mg/kg/injection, schedule: Q01DX005 (ip), vehicle: Klucel (hydroxypropylcellulose) (HPC) 100 % of control

CC(O)C(NC(=O)OC(C)(C)C)C(=O)O (stereo not drawn)
inactive: [2] 103 % of control | [3] 104 % of control | dose: 200.0 mg/kg/injection, schedule: Q01DX005 (ip), vehicle: saline 102 % of control

C=C(C)C(C(=O)OC(c1ccccc1)c1ccccc1)N1C(=O)C(NC(=O)COc2ccccc2)C1SSc1nc2ccccc2s1 (stereo not drawn)
inactive: [4] 94 % of control | [5] 89 % of control | [6] 93 % of control

COC(=O)C(Cc1ccccc1C#N)(OC)OC
inactive: [4] 98 % of control | [5] 101 % of control | [6] 98 % of control

Cc1cc2cc(CN3C(=O)c4ccccc4C3=O)ccc2[nH]1
inactive: dose: 100.0 mg/kg/injection, schedule: Q01DX001 (ip), vehicle: Klucel (hydroxypropylcellulose) (HPC) 100 % of control | dose: 200.0 mg/kg/injection, schedule: Q01DX001 (ip), vehicle: Klucel (hydroxypropylcellulose) (HPC) 93 % of control | dose: 400.0 mg/kg/injection, schedule: Q01DX001 (ip), vehicle: Klucel (hydroxypropylcellulose) (HPC) 93 % of control

CC(C)(F)c1nc2ncncc2[nH]c1=O
inactive: [7] 103 % of control | [8] 103 % of control | dose: 400.0 mg/kg/injection, schedule: Q01DX001 (ip), vehicle: saline with Tween-80 93 % of control

CN(CCNN1CCCC1)Cc1ccccc1Cl
inactive: dose: 12.5 mg/kg/injection, schedule: Q01DX005 (ip), vehicle: saline 102 % of control | dose: 25.0 mg/kg/injection, schedule: Q01DX005 (ip), vehicle: saline 105 % of control | [2] 102 % of control and 108 % of control | [3] 103 % of control

COc1ccc(/C=C2\CCCC3=C2N=C2SCC(=O)N2C3c2ccc(OC)cc2)cc1 (stereo not drawn)
inactive: dose: 25.0 mg/kg/injection, schedule: Q04DX003 (ip), vehicle: saline with Tween-80 98 % of control | dose: 50.0 mg/kg/injection, schedule: Q04DX003 (ip), vehicle: saline with Tween-80 92 % of control | [9] 90 % of control

CCn1cnc2c(SC)ncnc21
inactive: dose: 12.5 mg/kg/injection, schedule: Q01DX009 (ip), vehicle: saline 100 % of control | dose: 25.0 mg/kg/injection, schedule: Q01DX009 (ip), vehicle: saline 100 % of control | [10] 95 % of control | dose: 100.0 mg/kg/injection, schedule: Q04DX003 (ip), vehicle: other 100 % of control

Cc1nc2c(O)ccc(O)c2nc1C
inactive: dose: 3.75 mg/kg/injection, schedule: Q01DX009 (ip), vehicle: saline with Tween-80 99 % of control | dose: 3.75 mg/kg/injection, schedule: Q04DX003 (ip), vehicle: saline with Tween-80 100 % of control | dose: 7.5 mg/kg/injection, schedule: Q01DX009 (ip), vehicle: saline with Tween-80 94 % of control | dose: 7.5 mg/kg/injection, schedule: Q04DX003 (ip), vehicle: saline with Tween-80 99 % of control | dose: 15.0 mg/kg/injection, schedule: Q01DX009 (ip), vehicle: saline with Tween-80 88 % of control | dose: 15.0 mg/kg/injection, schedule: Q04DX003 (ip), vehicle: saline with Tween-80 106 % of control | dose: 30.0 mg/kg/injection, schedule: Q01DX009 (ip), vehicle: saline with Tween-80 95 % of control | dose: 30.0 mg/kg/injection, schedule: Q04DX003 (ip), vehicle: saline with Tween-80 109 % of control | dose: 60.0 mg/kg/injection, schedule: Q01DX009 (ip), vehicle: saline with Tween-80 110 % of control | dose: 60.0 mg/kg/injection, schedule: Q04DX003 (ip), vehicle: saline with Tween-80 109 % of control

O=c1c(Cl)c(Cl)cnn1-c1ccccc1
inactive: dose: 25.0 mg/kg/injection, schedule: Q01DX001 (ip), vehicle: saline with Tween-80 100 % of control | dose: 50.0 mg/kg/injection, schedule: Q01DX001 (ip), vehicle: saline with Tween-80 118 % of control | [7] 111 % of control | [8] 111 % of control

Cc1cc(-c2ccccc2)[s+]s1
inactive: dose: 12.5 mg/kg/injection, schedule: Q01DX009 (ip), vehicle: distilled water + Tween-80 101 % of control | dose: 25.0 mg/kg/injection, schedule: Q01DX009 (ip), vehicle: distilled water + Tween-80 115 % of control | dose: 50.0 mg/kg/injection, schedule: Q01DX009 (ip), vehicle: distilled water + Tween-80 117 % of control | dose: 100.0 mg/kg/injection, schedule: Q01DX009 (ip), vehicle: distilled water + Tween-80 111 % of control | dose: 200.0 mg/kg/injection, schedule: Q01DX009 (ip), vehicle: distilled water + Tween-80 117 % of control

O=c1cccc(Cl)[nH]1
inactive: dose: 100.0 mg/kg/injection, schedule: Q01DX009 (ip), vehicle: saline with Tween-80 100 % of control | dose: 200.0 mg/kg/injection, schedule: Q01DX009 (ip), vehicle: saline with Tween-80 95 % of control | dose: 400.0 mg/kg/injection, schedule: Q01DX009 (ip), vehicle: saline with Tween-80 100 % of control

CCOC1(OCC)Oc2c(Cl)c(Cl)c(Cl)c(Cl)c2OC1(OCC)OCC
inactive: dose: 60.0 mg/kg/injection, schedule: Q01DX005 (ip), vehicle: Klucel (hydroxypropylcellulose) (HPC) 99 % of control | dose: 120.0 mg/kg/injection, schedule: Q01DX005 (ip), vehicle: Klucel (hydroxypropylcellulose) (HPC) 100 % of control | dose: 240.0 mg/kg/injection, schedule: Q01DX005 (ip), vehicle: Klucel (hydroxypropylcellulose) (HPC) 104 % of control

C=CC[Si](CC=C)(c1ccccc1)c1ccccc1
inactive: dose: 6.25 mg/kg/injection, schedule: Q01DX009 (ip), vehicle: saline 99 % of control and 96 % of control (2×) | [11] 98 % of control

CCOC(=O)C1CC1(C(=O)OCC)C(=O)OCC (stereo not drawn)
inactive: [9] 96 % of control | dose: 200.0 mg/kg/injection, schedule: Q04DX003 (ip), vehicle: saline with Tween-80 97 % of control | dose: 400.0 mg/kg/injection, schedule: Q04DX003 (ip), vehicle: saline with Tween-80 92 % of control

COc1cc(/C=C/C(=O)N2CCN(CC(=O)N3CCCC3)CC2)cc(OC)c1OC
inactive: [10] 100 % of control | dose: 100.0 mg/kg/injection, schedule: Q01DX009 (ip), vehicle: saline 94 % of control | [11] 95 % of control

CC(=O)OC(CC=C(C)C)C1=CC(=O)c2c(O)ccc(O)c2C1=O (stereo not drawn)
inactive: dose: 6.25 mg/kg/injection, schedule: Q01DX005 (ip), vehicle: saline with Tween-80 109 % of control | dose: 12.5 mg/kg/injection, schedule: Q01DX005 (ip), vehicle: saline with Tween-80 109 % of control

CCCn1c(CC)nc([N+](=O)[O-])c1Sc1ncn[nH]1
inactive: dose: 25.0 mg/kg/injection, schedule: Q01DX005 (ip), vehicle: Klucel (hydroxypropylcellulose) (HPC) 123 % of control | [1] 108 % of control | dose: 200.0 mg/kg/injection, schedule: Q01DX005 (ip), vehicle: Klucel (hydroxypropylcellulose) (HPC) 113 % of control

c1ccc2sc(NCCSSCCNc3nc4ccccc4s3)nc2c1
inactive: dose: 25.0 mg/kg/injection, schedule: Q01DX009 (ip), vehicle: other 100 % of control | dose: 50.0 mg/kg/injection, schedule: Q01DX009 (ip), vehicle: other 86 % of control and 92 % of control | dose: 100.0 mg/kg/injection, schedule: Q01DX009 (ip), vehicle: other 90 % of control | dose: 200.0 mg/kg/injection, schedule: Q01DX009 (ip), vehicle: other 90 % of control and 93 % of control
